Experimental data reported in patent US20250268958A1, “COMMENSAL BACTERIA PROMOTE ENDOCRINE-RESISTANCE IN PROSTATE CANCER VIA ANDROGEN BIOSYNTHESIS” (FONDAZIONE PER L'ISTITUTO ONCOLOGICO DI RICERCA (IOR), priority 2021, published 2025).

Legend:
Ruminococcaceae family [1] = assay: Gut microbiota of mCRPC patients stratified by ADT regimen (whole genome metagenome); type: in vivo, human; details: Abiraterone vs Enzalutamide
Description: FIG. 16—Different ADT regimens alter gut microbiota composition. (A) Pie chart representing the number of CRPC patients receiving Enzalutamide, Abiraterone or other treatment (Apalutamide, Docetaxel, Cabazitaxel or no active treatment) at the moment of the rectal swab. […] (C) Patients treated with enzalutamide (n=14) and apalutamide (n=1) were stratified according to the circulating testosterone level (≤10 ng/dL or >10 ng/dL). Pie charts show, within each group, the fraction of patients having Ruminococcus DSM_10044 in their gut microbiota.
Collection of patient feces. Patients with hormone-sensitive (HSPC) and metastatic CRPC consented to the analysis of their rectal swabs. […]
Whole genome metagenome analysis of patient feces. […] DNA was analyzed by Qubit (Invitrogen, Thermo Fisher Scientific, Waltham, USA) and integrity was checked by agarose gel electrophoresis.
Illumina TruSeq DNA libraries were prepared using the TruSeq nano DNA Library preparation kit (Illumina, San Diego, USA) according to the manufacturer's instructions. […] The final libraries were quantified using a Quant-iT™ PicoGreen™ ds DNA Assay Kit (Thermo Fisher Scientific, Waltham, USA) and equimolarly pooled prior to sequencing. […] Quality of the reads in fastq format was checked with the software FastQC (version 0.11.8). […]

TRAMP-C1 cells = assay: TRAMP-C1 allograft tumor model, castrated (CTX) or sham-operated mice; details: high dose of testosterone vs vehicle
Description: C57BL6/N mice were challenged s.c. with 2.5×10^6 TRAMP-C1 cells. When tumors became palpable, mice were either castrated (CTX) or sham-operated (sham). After surgery, mice were either administered normal drinking water or antibiotic cocktail (ABX: neomycin 1 g/L, ampicillin 1 g/L, vancomycin 0.5 g/L and metronidazole 2 mg/mouse every other day). (A) Tumor volume (Sham n=14, Sham ABX n=4, CTX n=20, CTX ABX n=10) and (B) survival curve. […] Statistical analysis was performed with: (A), (F), (G) two-way ANOVA and Sidak's multiple comparison test; (B), (H), (1) Mantel Cox test; (C), (E), (K) unpaired two-sided Student's t-test. NS, not significant; *P<0.05; **P<0.01; ***P<0.001; ****P<0.0001.
Mice. […] 4 weeks old male C57BL6/N and NOD/SCID mice were purchased from Charles River (Calco, Italy) and acclimatized for four weeks before experimentation.

Ruminococcaceae family [2] = assay: Gut microbiota composition in TRAMP-C1 mice under bipolar androgen therapy; type: in vivo, mouse; details: high dose of testosterone vs vehicle
Description: FIG. 7—Pten^pc−/− and LNCaP castrated mice harbor a peculiar gut microbiota. […] (E) qPCR showing the abundance of R. gnavus and B. acidifaciens in feces of LNCaP mice that were either sham-operated (n=4), CTX (n=6), CTX+enzalutamide (n=6) at 85 days. TRAMP-C1 mouse models were treated with either vehicle or high dose of testosterone as per bipolar androgen therapy. (F) Tumor volume (vehicle n=5, high testosterone n=5). (G) Serum testosterone levels (vehicle n=5, high-testosterone n=5). (H) Heatmap representing differentially abundant bacteria (FDR<0.05) between mice injected with vehicle or high testosterone-dose (vehicle n=4, high-testosterone n=4). […]
Pten^pc−/− Murine 16S rDNA sequencing analysis and bacteria qPCR. […] DNA was extracted using a GNOME DNA isolation kit (MP) following the protocol described in (J. P. Furet et al., Comparative assessment of human and farm animal faecal microbiota using real-time quantitative PCR. FEMS Microbiol Ecol 68, 351-362 (2009)). […] In short, DNA concentration and quality were evaluated using NanoDrop 2000. […] PCR products were visualized on an agarose gel then quantified by qPCR using the KAPA Library Quantification Kit (KAPA Biosystems, KK4824). […] The pooled library was purified using the Agencourt AMPure XP kit (Beckman Coulter, A63880) and quantified with the same method prior to sequence using paired-end (read length=300 bases) on Illumina MiSeq. […]

Structure (SMILES) | expansion of Ruminococcaceae family in gut microbiota (Ruminococcaceae family [1]) | tumor volume (TRAMP-C1 cells) | abundance of Ruminococcaceae family (Ruminococcaceae family [2])
CNC(=O)c1ccc(N2C(=S)N(c3ccc(C#N)c(C(F)(F)F)c3)C(=O)C2(C)C)cc1F [Enzalutamide] | presented an expansion of Ruminococcaceae family | – | –
C[C@]12CC[C@H]3[C@@H](CCC4=CC(=O)CC[C@@]43C)[C@@H]1CC[C@@H]2O [bipolar androgen therapy, Testosterone] | – | promoted tumor inhibition | decreased the abundance of Ruminococcaceae family
